Publication PMC11748629, “Unidirectional MCM translocation away from ORC drives origin licensing” (Nature Communications, 2025)

What was measured:
Experiment in all cases: cryo-EM structure
ORC complex = molecular target: T1, ORC complex (Saccharomyces cerevisiae, UniProt P50874+P54784+P54790+P54791); assay type: binding; conditions: wild-type ORC in OCCM-Mcm2RA (sites Orc4-Orc1, Orc5-Orc4, Orc3-Orc5) and in OC1M-Mcm5RA (Orc5-Orc4, Orc3-Orc5); 2-3 mM ATP, Mg2+, pH 7.6, 30 C
T1 construct: gene ORC1; with Origin recognition complex subunit 2; Origin recognition complex subunit 6

MCM-Cdt1 complex [1] = test system: T2, MCM-Cdt1 complex; assay type: binding, Saccharomyces cerevisiae; conditions: OC1M-Mcm5RA complex (no Cdc6) on ARS1 DNA with ORC; 2 mM ATP added, Mg2+, pH 7.6, 30 C; sites Mcm5/2, 2/6, 6/4 and 4/7; conformers 1 and 2
T2 construct: gene MCM2; with Cell division cycle protein CDT1

MCM-Cdt1 complex [2] = test system: T2, MCM-Cdt1 complex; assay type: binding, Saccharomyces cerevisiae; conditions: OCCM-Mcm2RA complex on ARS1 DNA with ORC-Cdc6; 3 mM ATP added, Mg2+, pH 7.6, 30 C; all six MCM ATPase sites occupied, ADP assigned from density

T1 sequence (P54784 whole entry): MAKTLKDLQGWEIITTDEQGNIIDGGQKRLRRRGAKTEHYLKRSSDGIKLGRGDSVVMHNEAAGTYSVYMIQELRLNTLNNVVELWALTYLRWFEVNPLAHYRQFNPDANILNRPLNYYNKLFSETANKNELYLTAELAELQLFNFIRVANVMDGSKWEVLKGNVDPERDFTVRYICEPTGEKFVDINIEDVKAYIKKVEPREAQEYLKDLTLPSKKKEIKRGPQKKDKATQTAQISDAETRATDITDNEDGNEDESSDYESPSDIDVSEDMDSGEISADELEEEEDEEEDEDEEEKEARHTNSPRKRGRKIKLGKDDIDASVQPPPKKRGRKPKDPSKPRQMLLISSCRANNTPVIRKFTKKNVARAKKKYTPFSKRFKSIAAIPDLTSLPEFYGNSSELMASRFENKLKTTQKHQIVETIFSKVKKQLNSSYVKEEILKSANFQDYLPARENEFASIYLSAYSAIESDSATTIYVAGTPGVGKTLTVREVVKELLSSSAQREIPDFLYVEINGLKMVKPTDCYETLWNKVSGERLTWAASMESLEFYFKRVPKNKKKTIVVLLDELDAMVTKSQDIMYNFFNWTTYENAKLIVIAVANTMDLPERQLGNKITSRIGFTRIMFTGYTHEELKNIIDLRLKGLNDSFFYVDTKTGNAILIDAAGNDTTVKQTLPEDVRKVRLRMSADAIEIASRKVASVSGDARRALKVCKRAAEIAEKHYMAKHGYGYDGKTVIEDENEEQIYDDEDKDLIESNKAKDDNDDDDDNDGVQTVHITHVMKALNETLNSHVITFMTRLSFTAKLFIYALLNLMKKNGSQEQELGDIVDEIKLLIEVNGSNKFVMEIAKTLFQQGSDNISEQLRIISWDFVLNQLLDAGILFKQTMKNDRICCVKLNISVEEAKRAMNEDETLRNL
T1 sequence (P54790 2-616): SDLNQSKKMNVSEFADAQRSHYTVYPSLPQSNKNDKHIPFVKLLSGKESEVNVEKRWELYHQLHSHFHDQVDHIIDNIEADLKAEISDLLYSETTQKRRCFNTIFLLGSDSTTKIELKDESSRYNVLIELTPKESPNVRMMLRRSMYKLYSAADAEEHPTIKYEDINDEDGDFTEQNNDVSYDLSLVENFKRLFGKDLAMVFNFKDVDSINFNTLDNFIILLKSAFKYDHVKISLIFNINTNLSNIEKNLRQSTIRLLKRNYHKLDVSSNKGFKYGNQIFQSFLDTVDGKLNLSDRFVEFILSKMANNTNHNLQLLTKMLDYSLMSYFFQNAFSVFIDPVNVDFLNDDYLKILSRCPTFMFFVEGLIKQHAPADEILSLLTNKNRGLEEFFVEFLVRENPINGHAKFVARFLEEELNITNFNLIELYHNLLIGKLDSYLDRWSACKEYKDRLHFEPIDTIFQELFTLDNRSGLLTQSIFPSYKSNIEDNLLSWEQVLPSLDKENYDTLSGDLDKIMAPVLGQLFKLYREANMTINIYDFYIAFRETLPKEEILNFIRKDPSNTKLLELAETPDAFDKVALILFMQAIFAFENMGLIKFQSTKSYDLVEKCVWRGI
T1 sequence (P54791 whole entry): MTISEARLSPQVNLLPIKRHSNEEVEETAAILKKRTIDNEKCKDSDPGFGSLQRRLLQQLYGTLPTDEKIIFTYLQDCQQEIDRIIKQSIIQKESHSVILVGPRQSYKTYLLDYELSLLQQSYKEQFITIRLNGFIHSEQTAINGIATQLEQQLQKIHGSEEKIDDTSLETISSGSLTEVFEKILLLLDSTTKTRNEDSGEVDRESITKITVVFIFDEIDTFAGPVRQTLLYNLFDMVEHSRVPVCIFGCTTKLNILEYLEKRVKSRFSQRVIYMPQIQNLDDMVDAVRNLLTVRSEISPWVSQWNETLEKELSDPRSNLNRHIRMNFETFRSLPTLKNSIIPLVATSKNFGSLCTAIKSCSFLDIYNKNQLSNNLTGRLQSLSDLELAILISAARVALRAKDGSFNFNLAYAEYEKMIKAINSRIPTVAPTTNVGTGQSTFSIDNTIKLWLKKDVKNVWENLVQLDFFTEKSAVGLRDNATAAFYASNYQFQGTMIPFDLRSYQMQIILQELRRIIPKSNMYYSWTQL
T1 sequence (P50874 whole entry): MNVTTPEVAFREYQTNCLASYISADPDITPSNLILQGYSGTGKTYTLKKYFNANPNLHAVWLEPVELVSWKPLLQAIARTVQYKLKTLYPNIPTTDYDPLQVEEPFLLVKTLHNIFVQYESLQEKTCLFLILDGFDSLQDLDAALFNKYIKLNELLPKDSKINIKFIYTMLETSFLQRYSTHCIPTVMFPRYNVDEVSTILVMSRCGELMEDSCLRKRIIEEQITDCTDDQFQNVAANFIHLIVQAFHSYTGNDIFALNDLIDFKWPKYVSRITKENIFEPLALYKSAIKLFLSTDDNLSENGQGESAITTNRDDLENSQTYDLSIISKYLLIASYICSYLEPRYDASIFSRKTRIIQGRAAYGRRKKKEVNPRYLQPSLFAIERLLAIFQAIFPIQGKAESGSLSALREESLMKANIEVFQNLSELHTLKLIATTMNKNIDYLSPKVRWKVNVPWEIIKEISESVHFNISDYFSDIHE
T1 sequence (P32833 whole entry partner): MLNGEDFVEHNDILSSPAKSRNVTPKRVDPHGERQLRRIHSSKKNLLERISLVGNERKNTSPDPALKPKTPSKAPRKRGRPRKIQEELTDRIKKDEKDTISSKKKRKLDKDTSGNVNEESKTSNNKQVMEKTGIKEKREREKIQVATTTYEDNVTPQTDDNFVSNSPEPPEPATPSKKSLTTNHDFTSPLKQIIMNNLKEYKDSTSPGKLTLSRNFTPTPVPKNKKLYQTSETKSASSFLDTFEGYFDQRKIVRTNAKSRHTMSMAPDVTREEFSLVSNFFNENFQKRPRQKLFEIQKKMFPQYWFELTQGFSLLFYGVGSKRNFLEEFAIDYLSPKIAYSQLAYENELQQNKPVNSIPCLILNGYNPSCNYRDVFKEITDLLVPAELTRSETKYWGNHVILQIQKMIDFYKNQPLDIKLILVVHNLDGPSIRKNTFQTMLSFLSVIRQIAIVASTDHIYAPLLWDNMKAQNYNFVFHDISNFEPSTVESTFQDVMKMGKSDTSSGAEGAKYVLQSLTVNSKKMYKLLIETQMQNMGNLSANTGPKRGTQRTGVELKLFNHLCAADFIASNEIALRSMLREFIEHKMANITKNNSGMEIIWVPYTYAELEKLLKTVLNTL
T1 sequence (P38826 whole entry partner): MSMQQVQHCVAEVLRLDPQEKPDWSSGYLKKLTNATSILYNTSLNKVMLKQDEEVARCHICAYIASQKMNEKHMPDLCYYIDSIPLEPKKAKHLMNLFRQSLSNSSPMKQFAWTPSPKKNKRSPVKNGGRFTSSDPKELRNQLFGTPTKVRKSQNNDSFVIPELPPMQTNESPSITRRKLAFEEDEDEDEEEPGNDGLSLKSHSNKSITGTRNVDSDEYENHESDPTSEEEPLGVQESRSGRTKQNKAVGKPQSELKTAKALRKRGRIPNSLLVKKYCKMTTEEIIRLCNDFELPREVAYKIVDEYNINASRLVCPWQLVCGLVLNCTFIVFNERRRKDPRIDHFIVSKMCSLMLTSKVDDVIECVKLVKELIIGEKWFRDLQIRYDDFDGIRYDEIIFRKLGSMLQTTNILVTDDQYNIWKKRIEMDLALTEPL

Structure (SMILES)	cryo-EM structure (ORC complex)	cryo-EM structure (MCM-Cdt1 complex [1])	cryo-EM structure (MCM-Cdt1 complex [2])
Nc1ncnc2c1ncn2[C@@H]1O[C@H](COP(=O)(O)OP(=O)(O)OP(=O)(O)O)[C@@H](O)[C@H]1O [ATP]	ATP can only be observed in the Orc4-Orc1, Orc5-4 and Orc3-5 nucleotide-binding sites		
Nc1ncnc2c1ncn2[C@@H]1O[C@H](COP(=O)(O)OP(=O)(O)O)[C@@H](O)[C@H]1O [ADP]		Four ATPase sites were identified as occupied, with ADP modelled based on the density	All six ATPase sites were identified as occupied, with ADP modelled based on the density
